Measurements taken from US20230270804A1, “ANTI-HYPERCHOLESTEROLEMIA COMPOSITION AND A METHOD OF MANUFACTURING THE SAME” (NBI BIOSCIENCES PRIVATE LIMITED, priority 2020, published 2023).

Biological target: T1, HMG CoA Reductase (Rattus norvegicus, UniProt P51639)
T1 construct: The tissue homogenate was prepared by homogenizing 1 gm of tissue (liver) with 10 ml of saline arsenate solution; from tissue; host or cells: rat liver homogenate
T1 sequence (P51639 1-887): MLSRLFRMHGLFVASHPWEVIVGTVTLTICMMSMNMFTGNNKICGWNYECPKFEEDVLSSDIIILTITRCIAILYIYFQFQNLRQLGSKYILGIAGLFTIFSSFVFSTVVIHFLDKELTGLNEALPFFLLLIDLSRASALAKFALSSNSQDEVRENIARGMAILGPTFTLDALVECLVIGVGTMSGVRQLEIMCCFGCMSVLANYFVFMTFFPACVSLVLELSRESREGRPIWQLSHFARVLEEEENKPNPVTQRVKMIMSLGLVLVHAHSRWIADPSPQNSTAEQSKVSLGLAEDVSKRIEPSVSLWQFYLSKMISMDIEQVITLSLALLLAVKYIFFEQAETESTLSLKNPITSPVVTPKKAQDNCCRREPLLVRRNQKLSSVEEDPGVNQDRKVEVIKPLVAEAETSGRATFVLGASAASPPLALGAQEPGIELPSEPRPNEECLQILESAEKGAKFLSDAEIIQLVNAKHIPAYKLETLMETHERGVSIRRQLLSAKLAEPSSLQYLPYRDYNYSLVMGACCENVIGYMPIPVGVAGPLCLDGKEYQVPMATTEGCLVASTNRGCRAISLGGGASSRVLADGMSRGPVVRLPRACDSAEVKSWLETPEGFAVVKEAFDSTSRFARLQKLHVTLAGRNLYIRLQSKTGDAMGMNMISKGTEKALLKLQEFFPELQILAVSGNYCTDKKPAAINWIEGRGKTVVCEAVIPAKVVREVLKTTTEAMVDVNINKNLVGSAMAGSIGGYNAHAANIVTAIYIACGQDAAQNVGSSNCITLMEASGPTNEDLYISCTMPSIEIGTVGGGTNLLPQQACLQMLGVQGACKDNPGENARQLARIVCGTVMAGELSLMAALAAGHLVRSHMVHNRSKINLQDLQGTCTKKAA
Experiment: Prophylactic study: HMG CoA reductase activity in liver homogenate
Type: in vivo, Wistar strain albino rats
Details: HFD+normal diet, after sacrifice
Procedure: 1.5-2 ml blood sample was taken from retino-orbital chamber in vials for biochemical estimations at every 15 days. Investigations performed included detailed Total Cholesterol—TC (mg/dl), Triglyceride—TG (mg/dl), High Density Lipoprotein—HDL-C (mg/dl), Low Density Lipoprotein—LDL-C (mg/dl), Very Low-Density Lipoprotein—VLDL (mg/dl), WBC (10^3/u1), RBC (10^6/u1), Hb (g/dl), PCV (%), Reticulocyte (%), Platelet count 10^5/mm^3, Clotting time (Sec), Neutrophils, Lymphocyte, Monocyte and Eosinophil. The estimations were done with Ecoline kits from Erba Mannheim, ERBA diagnostics Mannheml, Germany using Semi Autoanalyzer RX50 of MicroLabs Instruments and COUNCELL21 of Tulip Diagnostics Pvt. Ltd. Lipid peroxidation (Plasma & Liver), HMG Co-Reductase, Creatine phosphokinase (CPK), Lactate dehydrogenase (LDH), SGOT and SGPT were estimated at the end of both the studies using the kits.
The tissue homogenate was prepared by homogenizing 1 gm of tissue (liver) with 10 ml of saline arsenate solution. Further equal volumes of the fresh 10% tissue homogenate and diluted perchloric acid were mixed and allowed to stand for 5 minute and centrifuge (2000 rpm, 10 minutes). […] The readings were taken after 10 minutes at 540 nm vs. a similarly treated saline/arsenate blank.

CC(C)c1c(C(=O)Nc2ccccc2)c(-c2ccccc2)c(-c2ccc(F)cc2)n1CC[C@@H](O)C[C@@H](O)CC(=O)O [Statin, Atorvastatin]
HMG Co Reductase: 163.92 ± 4.02 U/mg
